{
  "source": "paper PMC5556071",
  "about": "“ATR inhibition facilitates targeting of leukemia dependence on convergent nucleotide biosynthetic pathways” (Nature Communications, 2017)",
  "tested_on": "CEM cells",
  "experiment": "Non-targeted LC-MS metabolite profiling: percent [13C6]glucose labeling and relative metabolite levels",
  "format": "cell-based, human",
  "conditions": "CEM cells, 12 h following release from G1 arrest, replicates #1-#6",
  "from_the_text": "To further investigate the functions of dCK and ATR at the G1/S transition in CEM cells, a non-targeted liquid chromatography mass spectrometry (LC-MS) assay was used to determine the utilization of labeled [^13C6]glucose and [^13C9,^15N3]deoxycytidine, the main substrates for de novo and salvage nucleotide biosynthesis, respectively. Of the 166 metabolites identified in CEM cells treated with VE-822 and/or dCKi, 105 metabolites found in all four treatment groups contained glucose-derived ^13C atoms. […] These metabolites included intermediates such as rUTP, rCTP and rCDP in the de novo dCTP biosynthesis (Fig. 1d). […] However, several deoxyribonucleotides, including dCTP, were below the limit of detection of the non-targeted LC-MS approach, raising the concern that the sensitivity of this assay is not sufficient to measure the contribution of the salvage pathway or the ratio of de novo and salvage biosynthesis to these pools. To address this problem, a newly developed targeted MS assay was developed (Fig. 1e and Supplementary Fig. 3). In this assay, samples containing either extracted dNTPs or hydrolyzed DNA from labeled cells are separated by LC for detection by a triple quadrupole mass spectrometer using multiple reaction monitoring (LC-MS/MS-MRM). The first (Q1) and third (Q3) quadrupoles function as mass filters, while the second (Q2) quadrupole serves as a collision chamber (Fig. 1e). For instance, to profile the biosynthetic composition of deoxycytidine (dC) derived from hydrolyzed DNA or dCTP, an intact, protonated dC ion is selected in Q1, followed by fragmentation of the glycosidic bond, which releases protonated cytosine in Q2, that is filtered in Q3 and detected to generate an ion chromatogram. The peak areas for the ion chromatograms of salvage [^13C9,^15N3]dC (red trace), de novo [^13C5]dC (black trace, from [^13C6]glucose) and unlabeled dC (gray trace) (Fig. 1e) are used to determine the relative contributions of the de novo and salvage routes both to dCTP pools and to DNA-incorporated dCTP.\nCells were transferred into RPMI-1640 without glucose and supplemented with 10% dialyzed FBS (Gibco) containing the following labeled substrates: precursors for de novo [U-^13C6]glucose (Sigma-Aldrich, 389374) at 11 mM; precursors for purine salvage [U-^13C10,^15N5]dA (Cambridge Isotopes, CIL 3896), [^15N5]dA (Cambridge Isotopes, NLM-3895) and [^15N5]dG (Cambridge Isotopes, NLM-3899) at 5 µM or as indicated; and precursors for pyrimidine salvage: [U-^13C9,^15N3]dC (Silantes, 124603602) and [U-^13C10,^15N2]dT (Cambridge Isotopes, CNLM-3902) at 5 µM and [^15N2]orotate (Cambridge Isotopes, NLM-1048) at indicated concentrations. The cells were incubated for 12 h or as indicated before sample collection and processing. […]\nNon-targeted LC-MS metabolic assays. 1 x 10^6 cells were washed with ice-cold 150 mM ammonium acetate twice before adding 1 mL of ice-cold 80% methanol with 10 nM norvaline as an internal standard. After vigorous vortexing, samples were centrifuged at maximum speed, the aqueous layer was transferred to a glass vial and the metabolites were dried under vacuum. Metabolites were resuspended in 50 μL 70% acetonitrile (ACN) and 5 μL of this solution used for the mass spectrometer-based analysis. The analysis was performed on a Q Exactive (Thermo Scientific) in polarity-switching mode with positive voltage 4.0 kV and negative voltage 4.0 kV. The mass spectrometer was coupled to an UltiMate 3000RSLC (Thermo Scientific) UHPLC system. Mobile phase A was 5 mM ammonium acetate (NH4AcO), pH 9.9, B was acetonitrile and the separation achieved on a Luna […] NH2 100 A column (150 × 2.0 mm, Phenomenex). The flow was 200 μL/min, and the gradient ran from 15% A to 95% A in 18 min, followed by an isocratic step for 9 min and re-equilibration for 7 min. Metabolites were detected and quantified as area under the curve based on retention time and accurate mass (≤ 3 p.p.m.) using the TraceFinder 3.1 (Thermo Scientific). Relative amounts of […]",
  "key": {"[1]": {"conditions": "metabolite Asp (C00049), listed as V"}, "[2]": {"conditions": "metabolite Carnitine (C00318), listed as V"}, "[3]": {"conditions": "metabolite G3P (KEGG C00118), listed as V"}, "[4]": {"conditions": "metabolite G6P-F6P (KEGG C00668), listed as V"}, "[5]": {"conditions": "metabolite GABA (KEGG C00334), listed as V"}, "[6]": {"conditions": "metabolite GDP (KEGG C00035), listed as V"}, "[7]": {"conditions": "metabolite GMP (KEGG C00144), listed as V"}, "[8]": {"conditions": "metabolite GSH (KEGG C00051), listed as V"}, "[9]": {"conditions": "metabolite GSSG (KEGG C00127), listed as V"}, "[10]": {"conditions": "metabolite GTP (KEGG C00044), listed as V"}, "[11]": {"conditions": "metabolite Glc (KEGG C00031), listed as V"}, "[12]": {"conditions": "metabolite GlcA (KEGG C00257), listed as V"}, "[13]": {"conditions": "metabolite GlcN-6P (KEGG C00352), listed as V"}, "[14]": {"conditions": "metabolite GlcNAc-6P (KEGG C00357), listed as V"}},
  "note": "“And” between values parts separate entries of the source, which are not always exact repeats. Equal entries are not always repeated.",
  "data": [
    {"smiles": "CNCc1ccc(-c2cc(-c3nc(-c4ccc(S(=O)(=O)C(C)C)cc4)cnc3N)on2)cc1", "note": "[VE-822]", "values": [
      {"measurement": "Relative level, Asn", "setting": "metabolite Asn (C00152), listed as V", "result": "1.3 and 1.4 (2×) and 0.9 (3×)"},
      {"measurement": "Glucose labeling, Asp", "setting": "[1]", "result": "22.64% and 22.44% and 22.12% and 21.45% and 21.35% and 21.96%"},
      {"measurement": "Relative level, Asp", "setting": "[1]", "result": "1.8 and 1.3 and 1.4 and 1.5 and 0.9 and 1.0"},
      {"measurement": "Glucose labeling, C", "setting": "metabolite C (D07769), listed as V", "result": "0.35% and 0.24% and 0.32% and 0.34% and 0.00758% and 0.36%"},
      {"measurement": "Relative level, C", "setting": "metabolite C, listed as V", "result": "1.9 (2×) and 2.0 and 1.8 and 2.3 and 2.5"},
      {"measurement": "Glucose labeling, Carnitine", "setting": "[2]", "result": "0.0372% and 0.00375% and 0.00443% and 0.00282% and 0.06% and 0.00331%"},
      {"measurement": "Relative level, Carnitine", "setting": "[2]", "result": "0.9 and 1.0 (2×) and 0.7 (2×) and 0.8"},
      {"measurement": "Glucose labeling of G3P", "setting": "[3]", "result": "58.87% and 0.0369% (3×) and 100.00% (2×)"},
      {"measurement": "Relative level of G3P", "setting": "[3]", "result": "0.952 and 0.6 (2×) and 0.2 and 0.456"},
      {"measurement": "Glucose labeling of G6P-F6P", "setting": "[4]", "result": "88.15% and 86.27% and 90.17% and 83.23% and 85.62% and 81.44%"},
      {"measurement": "Relative level of G6P-F6P", "setting": "[4]", "result": "4.7 and 2.5 and 3.5 and 1.9 and 1.1 and 1.0"},
      {"measurement": "Glucose labeling of GABA", "setting": "[5]", "result": "0.05% and 0.04% and 0.0737% (4×)"},
      {"measurement": "Relative level of GABA", "setting": "[5]", "result": "0.9 (2×) and 1.0 and 0.4 (2×) and 0.5"},
      {"measurement": "Glucose labeling of GDP", "setting": "[6]", "result": "66.45% and 57.13% and 62.54% and 65.67% and 61.42% and 68.88%"},
      {"measurement": "Relative level of GDP", "setting": "[6]", "result": "2.9 and 0.7 and 1.2 and 1.1 and 0.647 and 0.351"},
      {"measurement": "Glucose labeling of GMP", "setting": "[7]", "result": "67.56% and 73.95% and 70.72% and 64.86% and 56.63% and 63.18%"},
      {"measurement": "Relative level of GMP", "setting": "[7]", "result": "3.6 and 1.9 (2×) and 2.2 and 0.527 and 0.431"},
      {"measurement": "Glucose labeling of GSH", "setting": "[8]", "result": "22.37% and 21.90% and 25.59% and 18.14% and 18.31% and 18.93%"},
      {"measurement": "Relative level of GSH", "setting": "[8]", "result": "1.4 and 1.1 and 0.9 and 0.6 and 0.557 and 0.5"},
      {"measurement": "Glucose labeling of GSSG", "setting": "[9]", "result": "41.97% and 38.91% and 39.41% and 36.66% and 34.27% and 31.20%"},
      {"measurement": "Relative level of GSSG", "setting": "[9]", "result": "1.0 (2×) and 0.9 and 0.7 and 0.553 and 0.533"},
      {"measurement": "Glucose labeling of GTP", "setting": "[10]", "result": "66.00% and 75.98% and 68.76% and 65.13% and 72.51% and 69.15%"},
      {"measurement": "Relative level of GTP", "setting": "[10]", "result": "1.6 and 0.4 (2×) and 0.8 and 0.9 and 0.378"},
      {"measurement": "Glucose labeling of Glc", "setting": "[11]", "result": "85.14% and 89.26% and 81.87% and 76.15% and 74.50% and 90.17%"},
      {"measurement": "Relative level of Glc", "setting": "[11]", "result": "1.6 and 2.4 and 1.4 and 0.9 (2×) and 3.6"},
      {"measurement": "Glucose labeling of GlcA", "setting": "[12]", "result": "10.98% and 10.19% and 12.71% and 10.94% and 11.47% and 12.23%"},
      {"measurement": "Relative level of GlcA", "setting": "[12]", "result": "0.9 and 0.6 and 0.566 and 0.5 and 0.3 (2×)"},
      {"measurement": "Glucose labeling of GlcN", "setting": "metabolite GlcN (KEGG C00329)", "result": 0.18, "unit": "%"},
      {"measurement": "Relative level of GlcN", "setting": "metabolite GlcN (KEGG C00329), listed as V", "result": "0.9 and 1.4 and 1.6 and 1.1 and 0.8 and 1.7"},
      {"measurement": "Glucose labeling of GlcN-6P", "setting": "[13]", "result": "6.56% and 5.43% and 4.48% and 7.20% and 4.32% and 4.29%"},
      {"measurement": "Relative level of GlcN-6P", "setting": "[13]", "result": "0.65 and 0.8 and 0.6 and 0.7 (2×) and 0.653"},
      {"measurement": "Glucose labeling of GlcNAc-6P", "setting": "[14]", "result": "39.94% and 9.75% and 47.59% and 56.84% and 49.88% and 50.30%"},
      {"measurement": "Relative level of GlcNAc-6P", "setting": "[14]", "result": "0.8 and 0.37 and 0.9 and 1.0 and 0.533 and 0.4"}
    ]}
  ]
}
